Drawing on patent publication US20260001914A1, “MACROCYCLIC PEPTIDES TARGETING KRAS” (Merck Sharp & Dohme LLC, priority 2022, published 2026), this text covers AlphaScreen @18 h, EC50 and EC50 for ten compounds.

pEC50: −log10 of the molar value. *1 amine or outer side, *2 acyl side, *3 side chain or, on linkers, in order; H or OH if unused. Where a SMILES comes first, the peptide text is derived from it. Bridges are numbered along the chain shown (N, C = ends). [ ]: non-standard residue; d: D form. Phe(4-guanidino) = N=C(N)Nc1ccc(C[C@H](N)C(=O)O)cc1; X22 = CNC(=N)N(C)CCC[C@@H](C(=O)[*:2])N(C)[*:1]; Ala(pyrimidin-5-yl) = N[C@@H](Cc1cncnc1)C(=O)O; X39 = CN([C@@H](Cc1cccnc1F)C(=O)[*:2])[*:1]; NMePhe(3-F) = CN[C@@H](Cc1cccc(F)c1)C(=O)O; Phe(4-F) = N[C@@H](Cc1ccc(F)cc1)C(=O)O; Phe(2-F) = N[C@@H](Cc1ccccc1F)C(=O)O; NMe3Pal = CN[C@@H](Cc1cccnc1)C(=O)O; X1 = O=C(C12CC(CN[*:1])(C1)C2)[*:2]; X38 = NC(=O)CCCN(CC(=O)[*:2])[*:1]; Ala(cPr) = N[C@@H](CC1CC1)C(=O)O; NMeF = CN[C@@H](Cc1ccccc1)C(=O)O; PhLac = O=C(O)[C@@H](O)Cc1ccccc1; 3Pal = N[C@@H](Cc1cccnc1)C(=O)O; Ahp(2) = CCCCC[C@H](N)C(=O)O; Cba = N[C@@H](CC1CCC1)C(=O)O; hLeu = CC(C)CC[C@H](N)C(=O)O; αMeC = C[C@](N)(CS)C(=O)O; NMeA = CN[C@@H](C)C(=O)O; Nle = CCCC[C@H](N)C(=O)O Where only a bound is given, the exact number is not on record here.

The first assay has as its target KRAS-G12D in AsPC-1 cells (UniProt P01116). The assay is described as follows: cell-based or functional assay.
Settings: not given
With “cyclo(FLac-NMeA-PyrimAla-cBuA-Phe2F-Nle-NMe3Pal-amBCP) (peptide)”, the AlphaScreen @18 h, EC50 was 45000 nM.

Regarding “cyclo(FLac-NMeA-PyrimAla-cBuA-Phe26F2-hL-NMeF-amBCP) (peptide)”, the AlphaScreen @18 h, EC50 was determined as 356 nM.

Compound “cyclo(F-NMeA-3Pal-Nle-Phe2F-Nle-NMeF-aMeC1-C1Ac) (peptide)” displayed an AlphaScreen @18 h, EC50 of 21000 nM.

In a further assay the target is phosphorylation levels of ERK1/2 in AsPC-1 (homozygous KRAS-G12D) cells (Homo sapiens, UniProt P01116, G12D). The assay is described as follows: Cellular phospho-ERK assay in AsPC-1 cells (Alpha Screen), assay medium without fetal bovine serum.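 Note: signal taken as phospho-ERK over total ERK per well, both detected in one multiplex bead assay, EC50 from four-parameter logistic fit of dose-response curves.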 In kind it is cell-based. The settings on record: phospho-ERK AlphaScreen, 18 h.
Procedure: Assay plate was incubated at 37° C. 5% CO2 for the indicated length of time. […] Phosphorylated ERK and total ERK levels were detected by Alpha SureFire Ultra Multiplex pERK kit (PerkinElmer MPSU-PTERK) using 5 μL, acceptor bead mix and 5 μL donor bead mix, both prepared following the manufacturer's protocol. Plates were sealed using aluminum sealing tape (Costar 07-200-683) during incubation at ambient temperature with constant shaking at 300 rpm for 1 h (both acceptor and donor). Assay plates were read on a Envision Xcite Multilabel Reader (PerkinElmer 1040900) at ambient temperature, with emission at 535 nm (Total ERK) and emission at 615 nm (Phospho ERK). Ratio of pERK vs total ERK in each well was used as the final readout. Dose response curves and EC50 were analyzed using a 4-parameter logistic equation in GraphPad Prism software.
One may read the pEC50 as the negative decadic logarithm of the EC50, by convention in mol/L. The compound `CCCC[C@@H]1NC(=O)[C@H](Cc2cccnc2)NC(=O)[C@H](C)N(C)C(=O)[C@H](Cc2ccc(F)cc2)NC(=O)C23CC(CNC(=O)[C@H](Cc4cccnc4)N(C)C(=O)[C@H](CCCC)NC(=O)[C@H](Cc4ccccc4F)NC1=O)(C2)C3` [compound 167, cyclo(Phe4F-NMeA-3Pal-Nle-Phe2F-Nle-NMe3Pal-amBCP)] (cyclo([3Pal][Nle][Phe(2-F)][Nle][NMe3Pal][X1][Phe(4-F)][NMeA])) gave a pEC50 of 4.37.

Regarding `CCCCC[C@@H]1NC(=O)[C@H](Cc2ccc(OC)cc2)NC(=O)[C@H](CC2CCC2)NC(=O)[C@H](Cc2ccc(NC(=N)N)cc2)NC(=O)CN(CCCC(N)=O)C(=O)[C@H](Cc2ccccc2)NC(=O)CSC[C@@](C)(C(N)=O)NC(=O)[C@H](Cc2ccccc2)N(C)C1=O` [compound 386, cyclo(F-Cmpg-Phe4Gn-cBuA-TyrOMe-Abp-NMeF-aMeCl-ClAc)] ({CH2CO}-F[X38][Phe(4-guanidino)][Cba]Y(Me)[Ahp(2)][NMeF][αMeC]-NH2; thioether N-8), the pEC50 is less than 4.29.

In turn, `CCCC[C@@H]1NC(=O)[C@H](Cc2cncnc2)NC(=O)[C@H](C)N(C)C(=O)[C@H](Cc2ccccc2)OC(=O)C23CC(CNC(=O)[C@H](Cc4ccccc4)N(C)C(=O)[C@H](CCCC)NC(=O)[C@H](Cc4ccccc4F)NC1=O)(C2)C3` [compound 230, cyclo(FLac-NMeA-PyrimAla-Nle-Phe2F-Nle-NMeF-amBCP)] (cyclo([NMeA][Ala(pyrimidin-5-yl)][Nle][Phe(2-F)][Nle][NMeF][X1][PhLac])) gave a pEC50 of 6.23.

`CCCC[C@@H]1NC(=O)[C@H](Cc2cncnc2)NC(=O)[C@H](C)N(C)C(=O)[C@H](Cc2ccccc2)OC(=O)C23CC(CNC(=O)[C@H](Cc4cccc(F)c4)N(C)C(=O)[C@H](CCCC)NC(=O)[C@H](Cc4ccccc4F)NC1=O)(C2)C3` [compound 174, cyclo(FLac-NMeA-PyrimAla-Nle-Phe2F-Nle-NMePhe3F-amBCP)] (cyclo([NMeA][Ala(pyrimidin-5-yl)][Nle][Phe(2-F)][Nle][NMePhe(3-F)][X1][PhLac])) gave a pEC50 of 6.13.

The compound `CC(C)CC[C@@H]1NC(=O)[C@H](Cc2ccccc2F)NC(=O)[C@H](CC2CC2)NC(=O)[C@H](Cc2cncnc2)NC(=O)[C@H](C)N(C)C(=O)[C@H](Cc2ccccc2)OC(=O)C23CC(CNC(=O)[C@H](Cc4ccccc4)N(C)C1=O)(C2)C3` [compound 260, cyclo(FLac-NMeA-PyrimAla-cPrA-Phe2F-hL-NMeF-amBCP)] (cyclo([Ala(cPr)][Phe(2-F)][hLeu][NMeF][X1][PhLac][NMeA][Ala(pyrimidin-5-yl)])) gave a pEC50 of 6.78. This pEC50 lies 0.65 log units higher than the previous one.

Compound `CC(C)CC[C@@H]1NC(=O)[C@H](Cc2ccccc2F)NC(=O)[C@H](CC2CC2)NC(=O)[C@H](Cc2cncnc2)NC(=O)[C@H](C)N(C)C(=O)[C@H](Cc2ccccc2)OC(=O)C23CC(CNC(=O)[C@H](Cc4cccnc4F)N(C)C1=O)(C2)C3` [compound 336, cyclo(FLac-NMeA-PyrimAla-cPrA-Phe2F-hL-NMe3Pal2F-amBCP)] (cyclo([Ala(cPr)][Phe(2-F)][hLeu][X39][X1][PhLac][NMeA][Ala(pyrimidin-5-yl)])) had a pEC50 of 5.86.

`CCCC[C@@H]1NC(=O)[C@H](Cc2cccnc2)NC(=O)[C@H](CCCN(C)C(=N)NC)N(C)C(=O)[C@H](Cc2ccccc2)OC(=O)CSC[C@@](C)(C(N)=O)NC(=O)[C@H](Cc2cccnc2)N(C)C(=O)[C@H](CCCC)NC(=O)[C@H](Cc2ccccc2F)NC1=O` [compound 396, cyclo(FLac-NMeArg1MeMe-3Pal-Nle-Phe2F-Nle-NMe3Pal-aMeCl-ClAc)] ({CH2CO}-[PhLac][X22][3Pal][Nle][Phe(2-F)][Nle][NMe3Pal][αMeC]-NH2; thioether N-8) had a pEC50 of less than 4.29.
